Several values for one entry are separate records, joined by “and”; a condition that tells them apart may be missing. Identical values can stand only once. Like-named read-outs stand apart in the source and are kept apart here. Marks after values point to notes of the source that are not given here.
Assays:
[1] = Ex vivo permeation, Franz cells; assay type: in vitro ADME, porcine
Method: Porcine buccal mucosa was used to evaluate the buccal permeation of the phenolic compounds in the extract and the CS-loaded OFs (n = 9). The porcine buccal mucosa was purchased in a local butcher shop, not requiring ethical approval. A Franz cell assembly (9 mm clear jacketed Franz cell with a flat ground joint, 5 ml receptor volume, and permeation area of 0.785 cm^2; PermeGear, Inc., USA) was used. This experiment followed the methodology described by Rodrigues et al. ([32]). In the Franz apparatus, the porcine buccal mucosa was positioned with the cheek side facing the donor chamber, which contained 500 µl (1,000 μg/ml) of the CS extract or the CS-loaded OFs (two square films (2 × 2 cm) with […] of thickness were dissolved in 4 ml of artificial saliva; donor concentration was normalized to ensure equivalence between the extract solution and the film formulation). The receptor chamber was filled with 5 ml PBS, maintained at 37°C, and stirred continuously at 150 rpm. The volume was maintained through the experiments.
(§1) The identification and quantification of the phenolic compounds present in the extract and the OFs, as well as the compounds that permeated from the OFs through in vitro and ex vivo assays, were conducted using an LC-ESI-LTQ-Orbitrap-HRMS equipment with an Accela chromatograph (Thermo Scientific, Hemel Hempstead, UK), a photodiode array detector, a quaternary pump, and a temperature-controlled autosampler coupled to a high-resolution LTQ Orbitrap Velos mass spectrometer (Thermo Scientific, Hemel Hempstead, UK) with an ESI source in negative mode ([33], [34]). The system was controlled using the Xcalibur v3.0 software (ThermoFisher Scientific, Hemel Hempstead, UK). Elution was performed on an Acquity™ UPLC® BEH C18 Column (2.1 × 100 mm, i.d., 1.7 µm particle size, Waters Corporation, Wexford, Ireland) maintained at 30°C.
(§2) Gradient elution was performed with water (A) and acetonitrile (B), both with 0.1% formic acid, with a flow rate and injection volume of 450 µl/min and 5 µl, respectively. The solvent gradient (v/v) of B [t (min), %B] was set as follows: (0, 0), (2, 0), (4, 30), (8, 100), (10, 100), (11, 0), and (14, 0). The samples were analyzed in the full scan mode at a resolving power of 30,000 and m/z 600. Data-dependent MS/MS events were acquired at a resolution of 15,000. Most intense ions were detected via the FTMS mode-triggered data-dependent acquisition mode. Ions that were not sufficiently intense for a data-dependent scan were explored in MSn mode. Precursors were fragmented by collision-induced dissociation using a C-trap with a normalized collision energy (35 V) and an activation time of 10 ms. […] Compounds whose theoretical [M–H]^− values exceeded the MS¹ acquisition range (m/z 100–600) were annotated based on characteristic MSⁿ fragment ions detected within the scan window.
Quantitative analysis was performed by using a validated chromatographic method ([38]).

TR146 cells = assay: In vitro permeation, buccal model; assay type: in vitro ADME, human
Method: The in vitro permeability of the bioactive compounds present in OFs (n = 9) was determined using a co-culture model composed of TR146 ([31]). The extract and the CS-loaded OFs were added to the apical side of the model as a stock solution. […] The Transepithelial Electrical Resistance (TEER) of the model was evaluated before, during, and at the end of the permeability assay using an EVOM Epithelial Volthometer equipped with a chopstick electrode (World Precision Instruments, Sarasota, FL, USA).
as §1, §2

| SMILES | Quantification of permeated compounds ([1]; CS extract) | Quantification of permeated compounds ([1]; CS-loaded OFs) | Permeation (%) ([1]; from CS extract, 15 min) | Permeation (%) ([1]; from CS extract, 30 min) | Quantification of permeated compounds (TR146 cells; CS extract) | Quantification of permeated compounds (TR146 cells; CS-loaded OFs) | Permeation (%) (TR146 cells; from CS extract, 15 min) | Permeation (%) (TR146 cells; from CS extract, 30 min) | Permeation (%) (TR146 cells; from CS extract, 45 min) | Permeation (%) (TR146 cells; from CS extract, 60 min) | Permeation (%) (TR146 cells; from CS extract, 90 min) | Permeation (%) (TR146 cells; from CS extract, 120 min) | Permeation (%) (TR146 cells; from CS extract, 180 min) | Permeation (%) (TR146 cells; from CS extract, 240 min) | other results |
| --- | --- | --- | --- | --- | --- | --- | --- | --- | --- | --- | --- | --- | --- | --- | --- |
| O=C(O)CCCCC(=O)O [Adipic acid] | 93.48 ± 2.39^b mg/ml | 11.84 ± 2.11^a mg/g film | 11.41 ± 0.03^a % | 9.47 ± 0.07^a % |  |  |  |  |  |  |  |  |  |  | Permeation (%) ([1]; from CS-loaded OFs, 15 min): 98.93 ± 2.05^b %; Permeation (%) ([1]; from CS-loaded OFs, 30 min): 97.59 ± 2.36^b % |
| O=c1oc2c(O)c(O)cc3c(=O)oc4c(O)c(O)cc1c4c23 [Ellagic acid] | 7.15 ± 2.50^b mg/ml | 1.27 ± 0.05^a mg/g film | 10.61 ± 0.08^a % | 6.26% and 6.26 ± 0.75^a % |  |  |  |  |  |  |  |  |  |  | Permeation (%) ([1]; from CS-loaded OFs, 15 min): 35.46 ± 0.32^b %; Permeation (%) ([1]; from CS-loaded OFs, 30 min): 60.75% and 60.75 ± 1.62^c % |
| Oc1cc(O)c2c(c1)O[C@H](c1ccc(O)c(O)c1)[C@H](O)C2 [Epicatechin] |  |  |  |  | 0.41 ± 0.03^a mg/ml | 0.36 ± 0.02^a mg/g film | 97.57 ± 1.07^a % | 96.86 ± 2.25^a % | 97.35 ± 1.74^a % | 98.05 ± 3.81^a % | 97.75 ± 5.73^a % | 97.73 ± 6.01^a % | 97.36 ± 2.57^a % | 96.86 ± 1.86^a % | Permeation (%) (TR146 cells; from CS extract, 240 min, listed as epicatechin): 96.86% |
| COc1cc(-c2oc3cc(O)cc(O)c3c(=O)c2O)ccc1O [Isorhamnetin] |  |  |  |  | 0.38 ± 0.04^a mg/ml | 0.38 ± 0.01^a mg/g film | 99.26 ± 2.34^a % | 99.73 ± 1.83^a % | 98.36 ± 3.74^a % | 99.10 ± 2.96^a % | 99.00 ± 4.70^a % | 98.36 ± 1.07^a % | 99.08 ± 2.69^a % | 98.36 ± 1.91^a % | Permeation (%) (TR146 cells; from CS extract, 240 min, listed as isorhamnetin): 98.36%; Permeation (%) (TR146 cells; from CS-loaded OFs, 15 min): 105.62 ± 3.71^a %; Permeation (%) (TR146 cells; from CS-loaded OFs, 30 min): 105.51 ± 3.25^a %; Permeation (%) (TR146 cells; from CS-loaded OFs, 45 min): 105.05 ± 2.24^a %; Permeation (%) (TR146 cells; from CS-loaded OFs, 60 min): 101.34 ± 2.95^a %; Permeation (%) (TR146 cells; from CS-loaded OFs, 90 min): 98.29 ± 2.14^a %; Permeation (%) (TR146 cells; from CS-loaded OFs, 120 min): 99.38 ± 1.47^a %; Permeation (%) (TR146 cells; from CS-loaded OFs, 180 min): 98.29 ± 1.94^a %; Permeation (%) (TR146 cells; from CS-loaded OFs, 240 min): 100.20 ± 3.56^a %; Permeation (%) (TR146 cells; from CS-loaded OFs, 240 min, listed as isorhamnetin): 100.20% |
| N[C@@H](Cc1ccccc1)C(=O)O [L-Phenylalanine] | 5.52 ± 0.24^b mg/ml | 0.42 ± 0.01^a mg/g film | 8.67 ± 0.03^a % | 8.57 ± 1.47^a % |  |  |  |  |  |  |  |  |  |  |  |
| N[C@@H](Cc1c[nH]c2ccccc12)C(=O)O [L-Tryptophan] | 4.18 ± 0.26^a mg/ml | 1.18 ± 0.09^a mg/g film | 37.21 ± 0.01^a % | 27.24 ± 0.23^a % |  |  |  |  |  |  |  |  |  |  |  |
| COC(=O)c1cc(O)c(O)c(O)c1 [Methyl gallate] |  |  |  |  | 0.37 ± 0.01^a mg/ml | 0.37 ± 0.03^a mg/g film | 37.24 ± 0.04^a % |  |  |  |  |  |  |  |  |
| O[C@H]1[C@H](O)[C@@H](O)[C@H](O)[C@@H](O)[C@H]1O [Myo-Inositol] |  |  |  |  | 0.54 ± 0.01^a mg/ml | 0.42 ± 0.01^a mg/g film | 39.51 ± 0.87^a^,^b % | 79.23 ± 1.43c % | 12.98 ± 0.01^a % | 33.80 ± 0.08^a^,^b % | 30.46 ± 0.05^a^,^b % | 41.34 ± 1.01^a^,^b % | 25.02 ± 0.09^a^,^b % | 56.50 ± 0.37^c % |  |
| O=C(CCc1ccc(O)cc1)c1c(O)cc(O)cc1O[C@@H]1O[C@H](CO)[C@@H](O)[C@H](O)[C@H]1O [Phlorizin] | 1.93± 0.06^a mg/ml | 0.87 ± 0.06^a mg/g film | 18.69 ± 0.04^a % | 17.60 ± 0.30^a % |  |  |  |  |  |  |  |  |  |  |  |
| O=C(O)CCCCCC(=O)O [Pimelic acid] | 26.17 ± 2.25^a mg/ml | 30.41 ± 0.01^a mg/g film | 65.10 ± 1.87^a % | 67.06 ± 2.58^a % |  |  |  |  |  |  |  |  |  |  | Permeation (%) ([1]; from CS-loaded OFs, 15 min): 76.61 ± 4.85^a % |
| O=C1CC[C@@H](C(=O)O)N1 [Pyroglutamic acid] |  |  |  |  | 41.32 ± 2.63^b mg/ml | 28.93 ± 1.88^a mg/g film | 13.92 ± 0.12^a % | 15.39 ± 1.05^a % | 18.22 ± 1.41^b % | 23.34 ± 0.88^b % | 22.87 ± 1.52^b % | 23.68 ± 1.84^b % | 21.35 ± 0.97^b % | 28.47 ± 2.52^b % | Permeation (%) (TR146 cells; from CS-loaded OFs, 15 min): 17.03 ± 0.23^a %; Permeation (%) (TR146 cells; from CS-loaded OFs, 30 min): 39.63 ± 0.24^a^,^b %; Permeation (%) (TR146 cells; from CS-loaded OFs, 45 min): 43.32 ± 1.12^a^,^b %; Permeation (%) (TR146 cells; from CS-loaded OFs, 60 min): 46.32 ± 2.65^a^,^b %; Permeation (%) (TR146 cells; from CS-loaded OFs, 90 min): 65.40 ± 0.82^b %; Permeation (%) (TR146 cells; from CS-loaded OFs, 120 min): 66.95 ± 3.71^b %; Permeation (%) (TR146 cells; from CS-loaded OFs, 180 min): 103.24 ± 2.71^c %; Permeation (%) (TR146 cells; from CS-loaded OFs, 240 min): 111.34% and 111.34 ± 1.62^c % |
| O=c1c(O[C@@H]2O[C@H](CO)[C@H](O)[C@H](O)[C@H]2O)c(-c2ccc(O)c(O)c2)oc2cc(O)cc(O)c12 [Quercetin 3-O-galactoside] |  |  |  |  | 0.36 ± 0.01^a mg/ml | 0.36 ± 0.01^a mg/g film |  |  |  | 49.94 ± 0.98^a % |  |  |  |  |  |
| COc1cc(C[C@@H](CO)[C@H](CO)Cc2ccc(O)c(OC)c2)ccc1O [Secoisolariciresinol] |  |  |  |  |  |  |  |  |  |  |  |  |  |  | Permeation (%) (TR146 cells): 22.32 ± 0.12^a % |
| COc1cc(C=O)ccc1O [Vanillin] |  |  |  |  | 0.70 ± 0.02^a mg/ml | 0.44 ± 0.05^a mg/g film | 8.10 ± 0.02^a % | 23.12 ± 0.56^b % | 28.35 ± 0.83^b % | 28.43 ± 0.41^b % | 42.18 ± 1.08^c % | 27.71 ± 0.72^a % | 53.91 ± 1.07^d % | 52.90 ± 0.73^d % |  |

— article PMC12488667, “Orodispersible films containing chestnut shell phenolics for buccal delivery: a preclinical approach for oral mucositis prevention” (Frontiers in Medical Technology, 2025)
